Experimental data as given in ChEMBL document CHEMBL4364353, “Lysophosphatidic Acid Receptor 1 Antagonists for the Treatment of Fibrosis” (ACS Med Chem Lett, 2019).

Biological target: Lysophosphatidic acid receptor 1 (Homo sapiens, UniProt Q92633)
Assay: Antagonist activity at human LPA1 expressed in CHO cells assessed as reduction in LPA-induced calcium influx incubated for 20 mins
Format: functional, cell-based

Chain of Lysophosphatidic acid receptor 1 (Q92633 whole entry): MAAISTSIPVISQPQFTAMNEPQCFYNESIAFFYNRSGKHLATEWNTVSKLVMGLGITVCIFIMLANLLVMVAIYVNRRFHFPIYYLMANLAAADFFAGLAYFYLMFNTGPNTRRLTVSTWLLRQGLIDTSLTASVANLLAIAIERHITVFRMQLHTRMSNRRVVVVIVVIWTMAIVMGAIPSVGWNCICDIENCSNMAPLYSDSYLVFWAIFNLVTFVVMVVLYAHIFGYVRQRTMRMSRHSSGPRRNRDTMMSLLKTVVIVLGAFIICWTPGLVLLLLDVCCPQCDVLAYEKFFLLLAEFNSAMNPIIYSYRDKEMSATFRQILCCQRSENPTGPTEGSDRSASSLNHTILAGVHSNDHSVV

IC50: 0.227 µM
Compound: Cc1noc(-c2ccc(O[C@H]3CCC[C@H](C(=O)O)C3)cc2)c1CNC(=O)OCc1ccc(Cl)cc1
